Reference: paper PMC10707797, “Ureidobenzenesulfonamides as Selective Carbonic Anhydrase I, IX, and XII Inhibitors” (Molecules, 2023)
pKi: −log10 of the molar value. Each block holds one molecule with its values, some of them ahead of it.

Key:
hCA II = hCA II (Homo sapiens, UniProt P00918); assay: biochemical
hCA I = hCA I (Homo sapiens, UniProt P00915); assay: biochemical
hCA XII [1] = target: T1, hCA XII (Homo sapiens, UniProt O43570); assay: biochemical
hCA IX [2] = target: T2, hCA IX (Homo sapiens, UniProt Q16790); assay: biochemical
hCA IX [3] = target: T2, hCA IX; assay: stop-flow CA inhibition assay, hCA IX; conditions: for S(I/IX) selectivity: ratio Ki hCA I / Ki hCA IX; for S(II/IX) selectivity: ratio Ki hCA II / Ki hCA IX
hCA XII [4] = target: T1, hCA XII; assay: stop-flow CA inhibition assay, hCA XII; conditions: for S(I/XII) selectivity: ratio Ki hCA I / Ki hCA XII; for S(II/XII) selectivity: ratio Ki hCA II / Ki hCA XII

T1 sequence (O43570 25-354): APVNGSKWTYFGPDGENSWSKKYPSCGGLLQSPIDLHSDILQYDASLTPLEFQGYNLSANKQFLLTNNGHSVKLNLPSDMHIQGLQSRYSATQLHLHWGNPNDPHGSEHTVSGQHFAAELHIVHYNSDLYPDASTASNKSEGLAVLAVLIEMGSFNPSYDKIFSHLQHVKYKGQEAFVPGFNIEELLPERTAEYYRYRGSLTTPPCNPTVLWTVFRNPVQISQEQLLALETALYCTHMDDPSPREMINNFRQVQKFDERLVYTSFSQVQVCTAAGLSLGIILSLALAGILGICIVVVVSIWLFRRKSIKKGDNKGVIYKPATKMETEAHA
Chain of hCA I (P00915 whole entry): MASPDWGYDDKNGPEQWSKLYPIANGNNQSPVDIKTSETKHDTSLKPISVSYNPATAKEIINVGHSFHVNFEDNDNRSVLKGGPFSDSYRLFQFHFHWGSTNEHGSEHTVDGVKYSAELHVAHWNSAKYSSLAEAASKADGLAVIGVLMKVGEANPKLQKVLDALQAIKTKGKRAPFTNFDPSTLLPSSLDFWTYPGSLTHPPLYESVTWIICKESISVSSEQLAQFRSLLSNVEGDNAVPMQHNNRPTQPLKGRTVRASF

- melting point: 230 to 232 °C
Structure (SMILES): NS(=O)(=O)c1ccc(NC(=O)Nc2ccc(Cc3ccccc3)cc2)cc1 [Compound 2, 4-[3-(4-Benzylphenyl)ureido]benzenesulfonamide]

- melting point: 202 to 203 °C
Structure (SMILES): CCCCCCNC(=O)Nc1ccc(S(N)(=O)=O)cc1 [Compound 11, 4-(3-Hexylureido)benzenesulfonamide]

- melting point: 261 to 263 °C
Structure (SMILES): CCOC(=O)c1ccc(NC(=O)Nc2ccc(S(N)(=O)=O)cc2)cc1 [Compound 13, Ethyl 4-[3-(4-sulfamoylphenyl)ureido]benzoate]

- melting point: 271 to 272 °C
- pKi (hCA II): 5.30
- pKi (hCA I): 5.18
Structure (SMILES): COc1ccc(-c2ccccc2)cc1NC(=O)Nc1ccc(S(N)(=O)=O)cc1 [Compound 4]

- pKi (hCA XII [1]): 7.34
- melting point: 221 to 223 °C
- pKi (hCA IX [2]): 6.74
- pKi (hCA I): 6.35
Structure (SMILES): CC(C)NC(=O)Nc1ccc(S(N)(=O)=O)cc1 [Compound 9, 4-(3-Isopropylureido)benzenesulfonamide]

- pKi (hCA XII [1]): 7.19
- melting point: 262 to 264 °C
- pKi (hCA II): 6.68
- S(I/IX) selectivity (hCA IX [3]): 4.57
- S(II/IX) selectivity (hCA IX [3]): 1.01
- S(I/XII) selectivity (hCA XII [4]): 14.84
- S(II/XII) selectivity (hCA XII [4]): 3.27
- pKi (hCA IX [2]): 6.68
- pKi (hCA I): 6.02
Structure (SMILES): NS(=O)(=O)c1ccc(NC(=O)NC(=O)c2ccccc2)cc1 [Compound 12, N-[(4-Sulfamoylphenyl)carbamoyl]benzamide]

- melting point: 194 to 196 °C
Structure (SMILES): CCCCNC(=O)Nc1ccc(S(N)(=O)=O)cc1 [Compound 10, 4-(3-Butylureido)benzenesulfonamide]

- melting point: 310 to 313 °C
Structure (SMILES): NS(=O)(=O)c1ccc(NC(=O)Nc2ccc(C(=O)O)cc2)cc1 [Compound 14, 4-[3-(4-Sulfamoylphenyl)ureido]benzoic acid]

- melting point: 240 to 241 °C
Structure (SMILES): NS(=O)(=O)c1ccc(NC(=O)Nc2cccc(F)c2)cc1 [Compound 7, 4-[3-(3-Fluorophenyl)ureido]benzenesulfonamide]

- melting point: 209 °C
Structure (SMILES): NS(=O)(=O)c1ccc(NC(=O)Nc2cc(Cl)ccc2Oc2ccccc2)cc1 [Compound 15, 4-[3-(5-Chloro-2-phenoxyphenyl)ureido]benzenesulfonamide]

- melting point: 219 to 221 °C
Structure (SMILES): NS(=O)(=O)c1ccc(NC(=O)Nc2ccccc2Cc2ccccc2)cc1 [Compound 3]

- melting point: 229 to 231 °C
Structure (SMILES): CCNC(=O)Nc1ccc(S(N)(=O)=O)cc1 [Compound 8, 4-(3-Ethylureido)benzenesulfonamide]

- pKi (hCA XII [1]): 7.04
- pKi (hCA IX [2]): 6.68
Structure (SMILES): COc1cccc(NC(=O)Nc2ccc(S(N)(=O)=O)cc2)c1 [Compound 6, 4-[3-(3-Methoxyphenyl)ureido]benzenesulfonamide]

- melting point: 227 to 229 °C
Structure (SMILES): COc1ccc(NC(=O)Nc2ccc(S(N)(=O)=O)cc2)cc1 [Compound 5]

- pKi (hCA XII [1]): 7.81
- pKi (hCA II): 7.47
- S(I/IX) selectivity (hCA IX [3]): 5.66
- S(II/IX) selectivity (hCA IX [3]): 0.78
- S(I/XII) selectivity (hCA XII [4]): 15.66
- S(II/XII) selectivity (hCA XII [4]): 2.16
- pKi (hCA IX [2]): 7.37
- pKi (hCA I): 6.61
Structure (SMILES): NS(=O)(=O)c1ccc(NC(=O)Nc2cccc3ccccc23)cc1 [Compound 1, 4-[3-(Naphthalen-1-yl)ureido]benzenesulfonamide]
